According to patent US10017827B2, “Herbicide-resistant sunflower plants with multiple herbicide resistant alleles of AHASL1 and methods of use” (BASF AGROCHEMICAL PRODUCTS B.V., priority 2007, dated 2018):
Like-named read-outs stand apart in the source and are kept apart here. Marks after values point to notes of the source that are not given here.

Key:
[1] = test system: AHAS enzyme, WT line (B7); experiment: Enzyme assay for AHAS activity, Sets 1 and 2; conditions: 100 μM imazamox
[2] = test system: A122T sunflower genotypes (mean of H2, L3, L4); experiment: Greenhouse whole-plant response to imazapyr; format: in vivo; conditions: 14 DAT
Source text: (§1) Experiment was arranged as a randomized block design with a full factorial (sunflower line×treatment) arrangement of treatments and 10 replications.

[3] = test system: sunflower line L3 (cmsGM40, A122T); experiment: Greenhouse whole-plant response to imazapyr; format: in vivo; conditions: 14 DAT
Source text: as §1

[4] = test system: sunflower line L4 (A122T); experiment: Greenhouse whole-plant response to imazapyr; format: in vivo; conditions: 14 DAT
Source text: as §1

[5] = test system: sunflower line GM40 (A122T); format: in vivo; conditions: 160 gr/ha at V4, 14 DAT
[6] = test system: sunflower line L5 (BTK 47, WT susceptible); conditions: for biomass accumulation, % of untreated: L5, 14 DAT
[7] = test system: sunflower line B770 (WT); experiment: Greenhouse whole-plant response to metsulfuron; conditions: 14 DAT
[8] = test system: sunflower line GM1606 (A122T/A122T); experiment: Greenhouse whole-plant response to metsulfuron; conditions: 14 DAT
[9] = test system: sunflower line GM40 (A122T/A122T); experiment: Greenhouse whole-plant response to metsulfuron; conditions: 14 DAT
[10] = test system: sunflower line L4 (A122T/A122T); experiment: Greenhouse whole-plant response to metsulfuron; conditions: 14 DAT
[11] = test system: sunflower hybrid cmsGM40xL4 (A122T/A122T); experiment: Greenhouse whole-plant response to metsulfuron; conditions: 14 DAT
[12] = test system: sunflower hybrid cmsGM40xBTSu-R1 (A122T/P197L); experiment: Greenhouse whole-plant response to metsulfuron; conditions: 14 DAT
[13] = A122T mean (H2,L3,L4), 2x (160 g ai/ha)
[14] = A122T mean (H2,L3,L4), 3x (240 g ai/ha)

Structure (SMILES): COCc1cnc(C2=NC(C)(C(C)C)C(=O)N2)c(C(=O)O)c1 (stereo not shown) [imazamox]
- AHAS activity, % of untreated control ([1]; Set 1): 17%
- AHAS activity, % of untreated control ([1]; Set 2): 11%

Structure (SMILES): CC(C)C1(C)N=C(c2ncccc2C(=O)O)NC1=O (stereo not shown) [imazapyr]
- height reduction, % of untreated controls ([2]; A122T homozygous, 0.5x): 0.1%
- height reduction, % of untreated controls ([2]; A122T homozygous, 6x): 18.8%
- reduction in biomass weight ([2]; A122T homozygous, higher dose (6x)): 25%
- Phytotoxicity Index (0-9) ([2]; A122T mean (H2,L3,L4), 0.5x (40 g ai/ha)): 0.3
- Phytotoxicity Index (0-9) ([2]; A122T mean (H2,L3,L4), 1x (80 g ai/ha)): 0.3
- Phytotoxicity Index (0-9) [2, 13]: 0.3
- plant height, % of untreated [2, 13]: 98.0%
- Phytotoxicity Index (0-9) [2, 14]: 0.3
- biomass accumulation, % of untreated [2, 14]: 90.0** %
- Phytotoxicity Index (0-9) ([2]; A122T mean (H2,L3,L4), 4x (320 g ai/ha)): 0.5
- Phytotoxicity Index (0-9) ([2]; A122T mean (H2,L3,L4), 5x (400 g ai/ha)): 0.8
- Phytotoxicity Index (0-9) ([2]; A122T mean (H2,L3,L4), 6x (480 g ai/ha)): 1.2
- Phytotoxicity Index (0-9) ([3]; 0.5x (40 g ai/ha)): 0.4
- Phytotoxicity Index (0-9) ([3]; 1x (80 g ai/ha)): 0.4
- Phytotoxicity Index (0-9) ([3]; 2x (160 g ai/ha)): 0.4
- plant height, % of untreated ([3]; 2x (160 g ai/ha)): 92.0%
- Phytotoxicity Index (0-9) ([3]; 3x (240 g ai/ha)): 0.5
- Phytotoxicity Index (0-9) ([3]; 4x (320 g ai/ha)): 1.0
- biomass accumulation, % of untreated ([3]; 4x (320 g ai/ha)): 75.0%
- Phytotoxicity Index (0-9) ([3]; 5x (400 g ai/ha)): 2.0
- Phytotoxicity Index (0-9) ([3]; 6x (480 g ai/ha)): 2.5
- Phytotoxicity Index (0-9) ([4]; 0.5x (40 g ai/ha)): 0.0
- biomass accumulation, % of untreated ([4]; 0.5x (40 g ai/ha)): 100.0%
- plant height, % of untreated ([4]; 0.5x (40 g ai/ha)): 100.0%
- Phytotoxicity Index (0-9) ([4]; 1x (80 g ai/ha)): 0.0
- plant height, % of untreated ([4]; 1x (80 g ai/ha)): 100.0%
- Phytotoxicity Index (0-9) ([4]; 2x (160 g ai/ha)): 0.0
- biomass accumulation, % of untreated ([4]; 2x (160 g ai/ha)): 97.0%
- Phytotoxicity Index (0-9) ([4]; 3x (240 g ai/ha)): 0.0
- plant height, % of untreated ([4]; 3x (240 g ai/ha)): 97.0%
- Phytotoxicity Index (0-9) ([4]; 4x (320 g ai/ha)): 0.0
- Phytotoxicity Index (0-9) ([4]; 5x (400 g ai/ha)): 0.0
- Phytotoxicity Index (0-9) ([4]; 6x (480 g ai/ha)): 0.5
- Mean Phytotoxicity Index (PI, 0-9) [5]: 0.2
- biomass accumulation, % of untreated ([6]; 1x (80 g ai/ha)): 15.0%
- biomass accumulation, % of untreated ([6]; 2x (160 g ai/ha)): 15.0%
- biomass accumulation, % of untreated ([6]; 3x (240 g ai/ha)): 15.0%
- biomass accumulation, % of untreated ([6]; 4x (320 g ai/ha)): 15.0%
- biomass accumulation, % of untreated ([6]; 5x (400 g ai/ha)): 15.0%
- biomass accumulation, % of untreated ([6]; 6x (480 g ai/ha)): 15.0%
- Phytotoxicity Index (0-9) ([6]; in vivo): 9

Structure (SMILES): COC(=O)c1ccccc1S(=O)(=O)NC(=O)Nc1nc(C)nc(OC)n1 [metsulfuron]
- Dry Matter accumulation (DMA) ([7]; 1X (5 g ai./ha)): 28.43^b
- Mean Height Reduction (PH) ([7]; 1X (5 g ai./ha)): 21.73^a*
- Phytotoxicity Index (PI, 0-9) ([7]; 1X (5 g ai./ha)): 8.50^bc
- Dry Matter accumulation (DMA) ([7]; 2X (10 g ai./ha)): 28.77^b
- Mean Height Reduction (PH) ([7]; 2X (10 g ai./ha)): 18.20^a
- Phytotoxicity Index (PI, 0-9) ([7]; 2X (10 g ai./ha)): 9.00^d
- Dry Matter accumulation (DMA) ([8]; 1X (5 g ai./ha)): 30.39^b
- Mean Height Reduction (PH) ([8]; 1X (5 g ai./ha)): 21.55^a
- Phytotoxicity Index (PI, 0-9) ([8]; 1X (5 g ai./ha)): 8.70^d
- Dry Matter accumulation (DMA) ([8]; 2X (10 g ai./ha)): 20.45^a
- Mean Height Reduction (PH) ([8]; 2X (10 g ai./ha)): 21.70^a
- Phytotoxicity Index (PI, 0-9) ([8]; 2X (10 g ai./ha)): 9.00^d
- Dry Matter accumulation (DMA) ([9]; 1X (5 g ai./ha)): 25.73^ab
- Mean Height Reduction (PH) ([9]; 1X (5 g ai./ha)): 21.39^a
- Phytotoxicity Index (PI, 0-9) ([9]; 1X (5 g ai./ha)): 9.00^d
- Dry Matter accumulation (DMA) ([9]; 2X (10 g ai./ha)): 20.69^a
- Mean Height Reduction (PH) ([9]; 2X (10 g ai./ha)): 21.17^a
- Phytotoxicity Index (PI, 0-9) ([9]; 2X (10 g ai./ha)): 9.00^d
- Dry Matter accumulation (DMA) ([10]; 1X (5 g ai./ha)): 25.40^ab
- Mean Height Reduction (PH) ([10]; 1X (5 g ai./ha)): 19.47^a
- Phytotoxicity Index (PI, 0-9) ([10]; 1X (5 g ai./ha)): 8.25^b
- Dry Matter accumulation (DMA) ([10]; 2X (10 g ai./ha)): 18.80^a
- Mean Height Reduction (PH) ([10]; 2X (10 g ai./ha)): 18.73^a
- Phytotoxicity Index (PI, 0-9) ([10]; 2X (10 g ai./ha)): 8.5^c
- Dry Matter accumulation (DMA) ([11]; 1X (5 g ai./ha)): 19.90^a
- Mean Height Reduction (PH) ([11]; 1X (5 g ai./ha)): 22.45^a
- Phytotoxicity Index (PI, 0-9) ([11]; 1X (5 g ai./ha)): 8.67^d
- Dry Matter accumulation (DMA) ([11]; 2X (10 g ai./ha)): 18.23^a
- Mean Height Reduction (PH) ([11]; 2X (10 g ai./ha)): 20.56^a
- Phytotoxicity Index (PI, 0-9) ([11]; 2X (10 g ai./ha)): 8.82^cd
- Mean Height Reduction (PH) ([12]; 1X (5 g ai./ha)): 77.04^b
- Phytotoxicity Index (PI, 0-9) ([12]; 1X (5 g ai./ha)): 0.00^a
- Dry Matter accumulation (DMA) ([12]; 2X (10 g ai./ha)): 72.66^c
